Assays:
[1] = system: LS180 cells adhering to recombinant P-selectin; experiment: Cell adhesion to immobilized P-selectin; type: cell-based, human; conditions: LS180 cells grown 5 days with disaccharide
Procedure: Cell adhesion to immobilized selectins. 96-well plates were coated overnight at 4° C. with recombinant E-selectin (4 μg/ml) or P-selectin (2 μg/ml) (R & D Systems) and blocked with 1% BSA/PBS. LS180 cells were grown for 5 days with various amounts of acetylated disaccharide, harvested, labeled with Calcein AM (5 μM, Molecular Probes) in DMEM/1% FBS, and allowed to settle at room temperature on selectin-coated wells (5×10^4 cells/well). Plates were then stirred at 75 rpm for 30 min (Orbit shaker, Lab-Line Instruments) followed by immersion upside-down in a vessel filled with Hank's buffered saline solution (HBSS, Sigma), which allowed non-adherent cells to fall under gravity. St John et al., J. Immunol Methods, 170: 159-166, 1994. The wells were then washed by aspiration using HBSS. LS180 cells were less adherent to P-selectin, so the immersion step was not necessary prior to washing. […] Fluorescence was measured using a 96-well fluorimeter (CytoFluor II), and the average of triplicate measurements was determined±standard error. Cell viability was judged to be >90% by Trypan blue exclusion at the end of each experiment.
Adhesion to selectins is altered in disaccharide-treated tumor cells. Treatment of LS180 cells with AcGnG-NM was not toxic to the cells up to 100 μM based on growth curves and exclusion of Trypan blue. […]

Blood cell counts = type: in vivo
[2] = system: sLe^X on LS180 cell surface; experiment: ELISA with CSLEX-1 mAb of cell-surface sLe^X; type: cell-based, human; conditions: LS180 cells
LS180 cells [3] = experiment: Toxicity and growth of LS180 cells in culture; type: cell-based, human
Procedure: Adhesion to selectins is altered in disaccharide-treated tumor cells. Treatment of LS180 cells with AcGnG-NM was not toxic to the cells up to 100 μM based on growth curves and exclusion of Trypan blue. […] LS180 colon carcinoma cells were “panned” onto wells precoated with recombinant E- or P-selectin as indicated. Open circles, adhesion to E-selectin; filled circles, adhesion to P-selectin. The extent of adhesion was normalized to the value obtained for cells not treated with disaccharide. […] Each experimental condition was done in quadruplicate and the average values±standard errors are given. […] Adhesion to P-selectin was more sensitive to the inhibitor than adhesion to E-selectin under these conditions. The inhibitory effect of AcGnG-NM was specific since incubation of cells with acetylated Galβ1,3Galβ-O-NM (AcGG-NM) had no effect on expression of sLe^X or adhesion to either selectin conjugate See FIG. 3. The maximum extent of inhibition approached the values obtained when the cells were pre-treated with sialidase or blocking antibody to the corresponding selectin.
A final consideration is the ability of selectins to participate in “arresting” newly circulating tumor cells in organ capillary beds. Entrapment of emboli may have important consequences on the eventual uptake and growth of tumor “seeds” into large metastatic tumor foci. […]

LS180 cells [4] = experiment: Cytolytic assay (51Cr release) with platelets; type: cell-based, human
U937 cells = experiment: sLe^X expression in U937 cells; type: cell-based
From the text: A 4-deoxy modified acetylated disaccharide inhibits sLe^X expression in the absence of oligosaccharide priming.

[5] = system: LS180 cells adhering to TNF-α activated HMVEC; experiment: Adhesion of tumor cells to activated human endothelial cells; type: cell-based; conditions: LS180 cells grown 5 days with disaccharide
Procedure: Adhesion of tumor cells to activated human endothelial cells. HMVEC were added to 96-well plates (1×10^4 cells/well) in EBM-2 media (Clonetics), and allowed to grow to confluence over 2 days. The cells were activated with TNF-α (20 ng/ml; R&D Systems) for 4 hr at 37° C. Calcein labeled tumor cells, harvested after growth for 5 days in various levels of AcGnG-NM, were added to HMVEC at 2.5×10^4 cells/well in 100 μl DMEM and allowed to settle for 20 min. The wells were washed twice with cold PBS, and the extent of binding was determined by fluorimetry. In some experiments anti-E-selectin mAb (2 μg/well) was added prior to addition of tumor cells, cells were treated with sialidase (20 mU/10^6 cells), or TNF-α was omitted.
AcGnG-NM inhibits adhesion to activated endothelia and platelets. In the circulation, tumor cells can encounter E- and P-selectins expressed on endothelial cells, P-selectin on platelets, and L-selectin on leukocytes. Since the presentation of receptors on cells may differ from their arrangement when immobilized on plastic surfaces, LS180 cells were challenged to bind to E-selectin expressed on TNF-α activated human microvascular endothelial cells (HMVEC). […] HMVEC were activated with TNF-α and overlaid with Calcein-loaded LS180 cells. The extent of adhesion was normalized to the value obtained for cells not treated with disaccharide. […]

[6] = system: HAL8 human metastatic lung adenocarcinoma cells; experiment: Metastatic lung tumor formation in SCID mice (HAL8); type: in vivo
[7] = system: LLC cells adhering to recombinant P-selectin; experiment: Adhesion of LLC cells to immobilized P-selectin; type: cell-based
From the text: LLC cells were “panned” onto wells precoated with recombinant P-selectin (R&D Systems, Minneapolis, M) as described (Brown et al., 2003; Fuster et al., Cancer Research 63: 2775-2781, 2003). The extent of adhesion was normalized to the value obtained for cells not treated with disaccharide. Controls included sialidase and anti-Ps monoclonal antibody treatment.

Q: Which “adhesion to recombinant P-selectin” value [1] does the source give for “GlcNAcβ1,3Galβ-O-naphthalenemethanol [AcGnG-NM]” here?
A: reduced the ability of LS180 cells to adhere

Q: And the “levels of blood cell components” value (Blood cell counts; in vivo)?
A: not affected

Q: What about the Lymphocytes (Blood cell counts; n = 13) of the same substance?
A: 6.1 ± 2.1 K/μL

Q: And the Neutrophils (Blood cell counts; n = 13)?
A: 1.5 ± 0.5 K/μL

Q: And the Platelets (Blood cell counts; n = 13)?
A: 1031 ± 174 K/μL

Q: What about the “Red Blood Cells” value (Blood cell counts; n = 13) of the same substance?
A: 10.5 ± 0.9 M/μL

Q: And the “Total Leukocytes” value (Blood cell counts; n = 13)?
A: 7.8 ± 2.6 K/μL

Q: And the “expression of sLe^X on the cell surface” value [2]?
A: inhibited expression of sLe^X on the cell surface in a dose-dependent manner

Q: And the “LS180 growth in culture” value (LS180 cells [3]; up to 50 μM)?
A: minimal effects

Q: And the “toxicity to the cells” value (LS180 cells [3]; up to 100 μM, growth curves and exclusion of Trypan blue)?
A: not toxic

Q: And the “platelet protection from cytolysis” value (LS180 cells [4]; cells pretreated with 50 μM for 6 days, mouse leukocytes and platelets)?
A: markedly reduced

Q: And the “cytolysis in whole human blood” value (LS180 cells [4]; whole human blood, 3 hr)?
A: comparable results

Q: What about the “sLe^X expression” value (U937 cells) of the same substance?
A: inhibit sLe^X expression

Q: What about the “adhesion to TNF-α activated HMVEC” value [5] of the same substance?
A: inhibited adhesion

Q: And the lung tumor foci [6]?
A: behaved similarly

Q: And the “cell adhesion to immobilized P-selectin” value [7]?
A: moderate reduction

Source: patent publication US7772192B2, “Compositions and methods for treatment of disease with acetylated disaccharides” (The Regents of the University of California, priority 2003, dated 2010)
